Measured values as given in US9603865B2, “Methods for the treatment of hepatitis B and hepatitis D virus infections” (priority 2014, dated 2017).
Structures can show the parent of a compound that is named as a salt.

Legend:
DHBV [1] = test: Serum DHBV DNA by quantitative PCR in DHBV infected Pekin ducks, combination treatment (Example III); type: in vivo
Experimental: The antiviral effect of combined treatment with the calcium chelate complex of REP 2139 (REP 2139-Ca) and TDF or REP 2139-Ca and TDF and ETV in DHBV infected Pekin ducks was examined by assessing changes in the levels of serum and liver DHBV DNA during and after treatment by quantitative PCR. Infection of ducks was carried out as described in Example II except that treatment was started one month after infection. Treatment regimens were as follows: • 1) Normal saline given by IP injection 3 times per week for 4 weeks • 2) TDF, given 15 mg/day by oral gavage for 28 days • 3) REP 2139-Ca, given 10 mg/kg by IP injection, 3 times per week for 4 weeks. • 4) REP 2139-Ca and TDF (as dosed above) • 5) REP 2139-Ca and TDF (as dosed above) and ETV given 1 mg/day by oral gavage for 28 days.
Serum DHBV DNA was assessed pre-treatment (time point A), at day 14 of treatment (time point B), at the end of treatment (time point C), and one and two months after treatment was stopped (follow-up, time point D and E).

DHBV [2] = conditions: previously established DHBV infection in vivo; cited from earlier work
HBV [3] = test: Serum HBsAg by on-site qualitative ELISA in a patient with chronic HBV infection (Example I); type: in vivo, human; conditions: REP 2055 monotherapy, once weekly IV infusion of 400 mg, 29 weeks, one patient
Experimental: (§1) A pharmaceutically acceptable formulation of the NAP REP 2055 (SEQ ID NO: 2) was administered to a patient with chronic HBV infection by once weekly IV infusion of 400 mg. The serum HBsAg response in this patient was monitored real-time each week using a qualified, on-site qualitative ELISA. This ELISA method is very sensitive to low levels of HBsAg but cannot accurately quantify any significant HBsAg concentration in the blood. […] Therefore, after 29 weeks of REP 2055 monotherapy, this patient received HBV polymerase inhibition therapy in addition to the existing REP 2055 therapy which consisted of 0.5 mg of entecavir taken orally every day.
This synergistic control of serum HBsAg with combined REP 2055/ETV treatment was maintained over many weeks of treatment.

HBV [4] = test: Serum viremia (serum HBV DNA) in a patient with chronic HBV infection (Example I); type: in vivo, human; conditions: REP 2055 monotherapy, once weekly IV infusion of 400 mg, one patient
Experimental: as §1

HBV [5] = test: Quantitative serum HBsAg by IMPACT platform in a patient with chronic HBV infection (Example I); type: in vivo, human; conditions: REP 2055 monotherapy; plateau from 10 weeks until 29 weeks
Excerpt: To confirm the synergistic activity of combination REP 2055/ETV therapy on suppression of HBsAg, serum samples from this patient were re-analyzed using the IMPACT platform to accurately quantitate serum HBsAg levels as described in de Neit et al. (2014, Antiviral Ther., 19: 259-267). […] Importantly, serum HBsAg reduction in this patient reached a plateau where significant serum HBsAg was stably present starting from 10 weeks of REP 2055 treatment until the start of combination REP 2055/ETV therapy at 29 weeks of treatment.

Molecule | serum DHBV DNA during treatment (DHBV [1]; 28 days treatment, day 14 (halfway) and end of treatment, REP 2139-Ca 10 mg/kg IP 3 times per week, TDF 15 mg/day, ETV 1 mg/day oral gavage) | serum DHBV DNA during follow-up (DHBV [1]; one and two months after treatment was stopped) | cccDNA copy number (DHBV [2]) | cccDNA transcriptional activity (DHBV [2]) | serum duck HBsAg (DHBsAg) (DHBV [2]) | serum HBsAg (qualitative ELISA) (HBV [3]) | drop in serum viremia (serum HBV DNA) (HBV [4]) | initial reduction of serum HBsAg (quantitative, IMPACT platform) (HBV [5])
CC(C)OC(=O)OCOP(=O)(CO[C@H](C)Cn1cnc2c(N)ncnc21)OCOC(=O)OC(C)C [TDF, tenofovir disoproxil fumarate] | reduced in all ducks but control was not achieved in all ducks until the end of treatment | rebounded in all ducks | – | – | – | – | – | –
(dAdC)20 (ACACACACACACACACACACACACACACACACACACACAC; DNA, all phosphorothioate, methylation of C not given here) [REP 2055, Each linkage is phosphorothioated] | – | – | reduction in cccDNA copy number | transcriptional inactivation of cccDNA | clearance | no detectable reduction | ~1 log | ~2 log
